Reference: patent publication US20100298141A1, “SUBSTITUTED PYRIDINE N-OXIDE HERBICIDES” (E. I. DU PONT DE NEMOURS AND COMPANY, priority 2007, published 2010)

Legend:
tall waterhemp = test: Test G preemergence test; type: in vivo, Amaranthus tuberculatos; details: scale 0 to 100
sorghum = test: Test G preemergence test; type: in vivo, Sorghum vulgare; details: scale 0 to 100
corn = test: Test G preemergence test; type: in vivo, Zea mays; details: scale 0 to 100
spring wheat = test: Test D preemergence test; type: in vivo, Triticum aestivum; details: scale 0 to 100
Description: (§1) Seeds of plant species selected from annual bluegrass (Poa annua), blackgrass (Alopecurus myosuroides), downy bromegrass (Bromus tectorum), field violet (Viola arvensis), green foxtail (Setaria viridis), Italian ryegrass (Lolium multiflorum), littleseed canarygrass (Phalaris minor), spring wheat (Triticum aestivum), wild oat (Avena fatua), […]), winter barley (Hordeum vulgare), and winter wheat (Triticum aestivum) were planted and treated preemergence with test chemicals formulated in a non-phytotoxic solvent mixture which included a surfactant. […] A dash (-) response means no test result.

winter wheat = test: Test D preemergence test; type: in vivo, Triticum aestivum; details: scale 0 to 100
Description: as §1

millet foxtail = test: Test G preemergence test; type: in vivo, Setaria italica; details: scale 0 to 100
downy bromegrass = test: Test D preemergence test; type: in vivo, Bromus tectorum; details: scale 0 to 100
Description: as §1

littleseed canarygrass = test: Test D preemergence test; type: in vivo, Phalaris minor; details: scale 0 to 100
Description: as §1

itchgrass = test: Test G preemergence test; type: in vivo, Rottboellia cochinchinensis; details: scale 0 to 100
barnyardgrass = test: Test G preemergence test; type: in vivo, Echinochloa crus-galli; details: scale 0 to 100
broadleaf signalgrass = test: Test G preemergence test; type: in vivo, Brachiaria platyphylla; details: scale 0 to 100
Italian ryegrass = test: Test D preemergence test; type: in vivo, Lolium multiflorum; details: scale 0 to 100
Description: as §1

wild oat = test: Test D preemergence test; type: in vivo, Avena fatua; details: scale 0 to 100
Description: as §1

cotton = test: Test G preemergence test; type: in vivo, Gossypium hirsutum; details: scale 0 to 100
millet = test: Test G preemergence test; type: in vivo, Panicum miliaceum; details: scale 0 to 100
field violet = test: Test D preemergence test; type: in vivo, Viola arvensis; details: scale 0 to 100
Description: as §1

woolly cupgrass = test: Test G preemergence test; type: in vivo, Eriochloa villosa; details: scale 0 to 100
blackgrass = test: Test D preemergence test; type: in vivo, Alopecurus myosuroides; details: scale 0 to 100
Description: as §1

annual bluegrass = test: Test D preemergence test; type: in vivo, Poa annua; details: scale 0 to 100
Description: as §1

goosegrass = test: Test G preemergence test; type: in vivo, Eleusine indica; details: scale 0 to 100
eastern black nightshade = test: Test G preemergence test; type: in vivo, Solanum ptycanthum; details: scale 0 to 100
yellow foxtail = test: Test G preemergence test; type: in vivo, Pennisetum glaucum; details: scale 0 to 100
green foxtail = test: Test D preemergence test; type: in vivo, Setaria viridis; details: scale 0 to 100
Description: as §1

duck salad = test: Test B flooded paddy test; type: in vivo, Heteranthera limosa; details: Flood, 250 g ai/ha, 13 to 15 days; scale 0 to 100, 0 no effect, 100 complete control
Description: (§2) At time of treatment, test pots were flooded to 3 cm above the soil surface, treated by application of test compounds directly to the paddy water, and then maintained at that water depth for the duration of the test. Treated plants and controls were maintained in a greenhouse for 13 to 15 days, after which time all species were compared to controls and visually evaluated. […] A dash (-) response means no test result.

umbrella sedge = test: Test B flooded paddy test; type: in vivo, Cyperus difformis; details: Flood, 250 g ai/ha, 13 to 15 days; scale 0 to 100, 0 no effect, 100 complete control
Description: as §2

SMILES: Cc1cc[n+]([O-])c(S(=O)(=O)C(Cl)c2c(C(F)(F)F)nn(C)c2Cl)c1 (racemic) [Compound 22]
- Plant response rating, Waterhemp (tall waterhemp; 31 g ai/ha): 0
- Plant response rating, Waterhemp (tall waterhemp; 62 g ai/ha): 20
- Plant response rating, Waterhemp (tall waterhemp; 125 g ai/ha): 30
- Plant response rating, Waterhemp (tall waterhemp; 250 g ai/ha): 100
- Plant response rating, Sorghum (sorghum; 31 g ai/ha): 0
- Plant response rating, Sorghum (sorghum; 62 g ai/ha): 0
- Plant response rating, Sorghum (sorghum; 125 g ai/ha): 0
- Plant response rating, Sorghum (sorghum; 250 g ai/ha): 95
- Plant response rating, Corn (corn; 31 g ai/ha): 0
- Plant response rating, Corn (corn; 62 g ai/ha): 0
- Plant response rating, Corn (corn; 125 g ai/ha): 0
- Plant response rating, Corn (corn; 250 g ai/ha): 0
- Plant response rating, Wheat, Spring (spring wheat; 31 g ai/ha): 0
- Plant response rating, Wheat, Spring (spring wheat; 62 g ai/ha): 0
- Plant response rating, Wheat, Spring (spring wheat; 125 g ai/ha): 0
- Plant response rating, Wheat, Spring (spring wheat; 250 g ai/ha): 15
- Plant response rating, Wheat, Winter (winter wheat; 31 g ai/ha): 0
- Plant response rating, Wheat, Winter (winter wheat; 62 g ai/ha): 0
- Plant response rating, Wheat, Winter (winter wheat; 125 g ai/ha): 0
- Plant response rating, Wheat, Winter (winter wheat; 250 g ai/ha): 10
- Plant response rating, Foxtail, Millet (millet foxtail; 31 g ai/ha): 95
- Plant response rating, Foxtail, Millet (millet foxtail; 62 g ai/ha): 95
- Plant response rating, Foxtail, Millet (millet foxtail; 125 g ai/ha): 95
- Plant response rating, Foxtail, Millet (millet foxtail; 250 g ai/ha): 95
- Plant response rating, Bromegrass, Downy (downy bromegrass; 31 g ai/ha): 0
- Plant response rating, Bromegrass, Downy (downy bromegrass; 62 g ai/ha): 20
- Plant response rating, Bromegrass, Downy (downy bromegrass; 125 g ai/ha): 20
- Plant response rating, Bromegrass, Downy (downy bromegrass; 250 g ai/ha): 35
- Plant response rating, Canarygrass (littleseed canarygrass; 31 g ai/ha): 0
- Plant response rating, Canarygrass (littleseed canarygrass; 62 g ai/ha): 15
- Plant response rating, Canarygrass (littleseed canarygrass; 125 g ai/ha): 75
- Plant response rating, Canarygrass (littleseed canarygrass; 250 g ai/ha): 100
- Plant response rating, Itchgrass (itchgrass; 31 g ai/ha): 0
- Plant response rating, Itchgrass (itchgrass; 62 g ai/ha): 15
- Plant response rating, Itchgrass (itchgrass; 125 g ai/ha): 20
- Plant response rating, Itchgrass (itchgrass; 250 g ai/ha): 40
- Plant response rating, Barnyardgrass (barnyardgrass; 31 g ai/ha): 0
- Plant response rating, Barnyardgrass (barnyardgrass; 62 g ai/ha): 95
- Plant response rating, Barnyardgrass (barnyardgrass; 125 g ai/ha): 100
- Plant response rating, Barnyardgrass (barnyardgrass; 250 g ai/ha): 100
- Plant response rating, Signalgrass (broadleaf signalgrass; 31 g ai/ha): 0
- Plant response rating, Signalgrass (broadleaf signalgrass; 62 g ai/ha): 40
- Plant response rating, Signalgrass (broadleaf signalgrass; 125 g ai/ha): 65
- Plant response rating, Signalgrass (broadleaf signalgrass; 250 g ai/ha): 75
- Plant response rating, Ryegrass, Italian (Italian ryegrass; 31 g ai/ha): 0
- Plant response rating, Ryegrass, Italian (Italian ryegrass; 62 g ai/ha): 30
- Plant response rating, Ryegrass, Italian (Italian ryegrass; 125 g ai/ha): 35
- Plant response rating, Ryegrass, Italian (Italian ryegrass; 250 g ai/ha): 55
- Plant response rating, Oat, Wild (wild oat; 31 g ai/ha): 0
- Plant response rating, Oat, Wild (wild oat; 62 g ai/ha): 0
- Plant response rating, Oat, Wild (wild oat; 125 g ai/ha): 0
- Plant response rating, Oat, Wild (wild oat; 250 g ai/ha): 15
- Plant response rating, Cotton (cotton; 31 g ai/ha): 0
- Plant response rating, Cotton (cotton; 62 g ai/ha): 0
- Plant response rating, Cotton (cotton; 125 g ai/ha): 0
- Plant response rating, Cotton (cotton; 250 g ai/ha): 0
- Plant response rating, Millet (millet; 31 g ai/ha): 0
- Plant response rating, Millet (millet; 62 g ai/ha): 35
- Plant response rating, Millet (millet; 125 g ai/ha): 60
- Plant response rating, Millet (millet; 250 g ai/ha): 100
- Plant response rating, Field Violet (field violet; 31 g ai/ha): 0
- Plant response rating, Field Violet (field violet; 62 g ai/ha): 30
- Plant response rating, Field Violet (field violet; 125 g ai/ha): 30
- Plant response rating, Field Violet (field violet; 250 g ai/ha): 45
- Plant response rating, Cupgrass, Woolly (woolly cupgrass; 31 g ai/ha): 0
- Plant response rating, Cupgrass, Woolly (woolly cupgrass; 62 g ai/ha): 60
- Plant response rating, Cupgrass, Woolly (woolly cupgrass; 125 g ai/ha): 70
- Plant response rating, Cupgrass, Woolly (woolly cupgrass; 250 g ai/ha): 80
- Plant response rating, Blackgrass (blackgrass; 31 g ai/ha): 40
- Plant response rating, Blackgrass (blackgrass; 62 g ai/ha): 40
- Plant response rating, Blackgrass (blackgrass; 250 g ai/ha): 95
- Plant response rating, Bluegrass (annual bluegrass; 31 g ai/ha): 20
- Plant response rating, Bluegrass (annual bluegrass; 62 g ai/ha): 65
- Plant response rating, Bluegrass (annual bluegrass; 125 g ai/ha): 95
- Plant response rating, Bluegrass (annual bluegrass; 250 g ai/ha): 100
- Plant response rating, Goosegrass (goosegrass; 31 g ai/ha): 100
- Plant response rating, Goosegrass (goosegrass; 62 g ai/ha): 100
- Plant response rating, Goosegrass (goosegrass; 125 g ai/ha): 100
- Plant response rating, Goosegrass (goosegrass; 250 g ai/ha): 100
- Plant response rating, Nightshade (eastern black nightshade; 31 g ai/ha): 0
- Plant response rating, Nightshade (eastern black nightshade; 62 g ai/ha): 0
- Plant response rating, Nightshade (eastern black nightshade; 125 g ai/ha): 0
- Plant response rating, Nightshade (eastern black nightshade; 250 g ai/ha): 45
- Plant response rating, Foxtail, Yellow (yellow foxtail; 31 g ai/ha): 0
- Plant response rating, Foxtail, Yellow (yellow foxtail; 62 g ai/ha): 35
- Plant response rating, Foxtail, Yellow (yellow foxtail; 125 g ai/ha): 100
- Plant response rating, Foxtail, Yellow (yellow foxtail; 250 g ai/ha): 100
- Plant response rating, Foxtail, Green (green foxtail; 31 g ai/ha): 15
- Plant response rating, Foxtail, Green (green foxtail; 62 g ai/ha): 40
- Plant response rating, Foxtail, Green (green foxtail; 125 g ai/ha): 95
- Plant response rating, Foxtail, Green (green foxtail; 250 g ai/ha): 100

SMILES: Cn1nc(C(F)(F)F)c(C[S+]([O-])c2ccc(Cl)c[n+]2[O-])c1OC(F)F (stereo not drawn) [Compound 6]
- Plant response rating, Ducksalad (duck salad): 100
- Plant response rating, Umbrella Sedge (umbrella sedge): 100
